These molecules were tested on Wnt signaling (assay: TopFlash reporter gene bioassay in SW480 cells). Conditions: Homo sapiens, SW480, TopFlash reporter gene assay, inhibition of Wnt signaling; read-out: RGA, IC50 (μM) TopF.
Assay type: cell-based
`C=CCN1CC(=O)N2[C@@H](Cc3ccc(O)cc3)C(=O)N(Cc3csc4cc(NC(=O)OC)ccc34)C[C@@H]2N1C(=O)NCc1ccccc1` [compound 45] was tested, and the IC50 was 0.67 ± 0.09 µM. Molecule `C=CCN1CC(=O)N2[C@@H](Cc3ccc(O)cc3)C(=O)N(Cc3cccc(C(=O)OC)c3)C[C@@H]2N1C(=O)NCc1ccccc1` [compound 46] has an IC50 of 0.69 ± 0.15 µM. `C=CCN1CC(=O)N2[C@@H](Cc3ccc(O)cc3)C(=O)N(Cc3cccc4c3ccn4S(=O)(=O)c3ccc(C)cc3)C[C@@H]2N1C(=O)NCc1ccccc1` [compound 47] gave an IC50 of 0.69 ± 0.19 µM. Work on `C=CCN1CC(=O)N2[C@@H](Cc3ccc(O)cc3)C(=O)N(Cc3cccc(C(=O)NC)n3)C[C@@H]2N1C(=O)NCc1ccccc1` [compound 48] yielded an IC50 of 0.7 ± 0.26 µM. Work on `C=CCN1CC(=O)N2[C@@H](Cc3ccc(O)cc3)C(=O)N(Cc3cccc4[nH]cnc34)C[C@@H]2N1C(=O)NCc1ccccc1` [compound 49] yielded an IC50 of 0.71 ± 0.43 µM. With `C=CCN1CC(=O)N2[C@@H](Cc3ccc(NC=O)cc3)C(=O)N(Cc3cccc4scnc34)C[C@@H]2N1C(=O)NCc1ccccc1` [compound 50] the IC50 was 0.72 ± 0.075 µM. For `C=CCN1CC(=O)N2[C@@H](Cc3ccc(O)cc3)C(=O)N(Cc3csc4cc(NCCC(C)(C)C)ccc34)C[C@@H]2N1C(=O)NCc1ccccc1` [compound 51], the IC50 was 0.72 ± 0.15 µM. `C=CCN1CC(=O)N2[C@@H](Cc3ccc(O)cc3)C(=O)N(Cc3cccc(Br)c3)C[C@@H]2N1C(=O)NCc1ccccc1` [compound 52] showed an IC50 of 0.73 ± 0.09 µM. `C=CCN1CC(=O)N2[C@@H](Cc3ccc(O)cc3)C(=O)N(Cc3cccc(C(=O)NCc4cccs4)c3)C[C@@H]2N1C(=O)NCc1ccccc1` [compound 53] was tested, and the IC50 was 0.73 ± 0.03 µM. `C=CCN1CC(=O)N2[C@@H](Cc3ccc(O)cc3)C(=O)N(Cc3csc4ccc(NCc5ccccc5)cc34)C[C@@H]2N1C(=O)NCc1ccccc1` [compound 55] showed an IC50 of 0.74 ± 0.08 µM. `C=CCN1CC(=O)N2[C@@H](Cc3ccc(O)cc3)C(=O)N(Cc3cccc(C(=O)NCc4ccccc4)c3)C[C@@H]2N1C(=O)NCc1ccccc1` [compound 56] was tested, and the IC50 was 0.74 ± 1.46 µM. For `C=CCN1CC(=O)N2[C@@H](Cc3ccc(O)cc3)C(=O)N(Cc3cccc(NC=O)c3)C[C@@H]2N1C(=O)NCc1ccccc1` [compound 57], the IC50 was 0.76 ± 0.12 µM. `C=CCN1CC(=O)N2[C@@H](Cc3ccc(O)cc3)C(=O)N(Cc3ccccc3OC(F)F)C[C@@H]2N1C(=O)NCc1ccccc1` [compound 58] was tested, and the IC50 was 0.78 ± 0.13 µM. `C=CCN1CC(=O)N2[C@@H](Cc3ccc(O)cc3)C(=O)N(Cc3csc4c([N+](=O)[O-])cccc34)C[C@@H]2N1C(=O)NCc1ccccc1` [compound 59] showed an IC50 of 0.78 ± 0.15 µM. With `C=CCN1CC(=O)N2[C@@H](Cc3ccc(O)cc3)C(=O)N(Cc3cccc(-c4cccc(C(N)=O)c4)c3)C[C@@H]2N1C(=O)NCc1ccccc1` [compound 60] the IC50 was 0.79 ± 0.1 µM. With `C=CCN1CC(=O)N2C(Cc3ccc(O)cc3)C(=O)N(Cc3cccc(-c4ccccn4)c3)C[C@@H]2N1C(=O)NCc1ccccc1` (some centres unmarked) [compound 61] the IC50 was 0.8 ± 0.07 µM. `C=CCN1CC(=O)N2[C@@H](Cc3ccc(O)cc3)C(=O)N(Cc3cccc(-c4ccc(N5CCOCC5)nc4)c3)C[C@@H]2N1C(=O)NCc1ccccc1` [compound 62] showed an IC50 of 0.81 ± 0.15 µM. `C=CCN1CC(=O)N2[C@@H](Cc3ccc(O)cc3)C(=O)N(Cc3cccc4c(C)c(-c5ccccc5F)n(S(=O)(=O)c5ccccc5)c34)C[C@@H]2N1C(=O)NCc1ccccc1` [compound 63] gave an IC50 of 0.82 ± 0.25 µM. Work on `C=CCN1CC(=O)N2[C@@H](Cc3ccc(O)cc3)C(=O)N(Cc3cccc4ccn(S(=O)(=O)c5ccc(C)cc5)c34)C[C@@H]2N1C(=O)NCc1ccccc1` [compound 64] yielded an IC50 of 0.82 ± 0.33 µM. With `C=CCN1CC(=O)N2[C@@H](Cc3ccc(O)cc3)C(=O)N(Cc3cccc4cc[nH]c34)C[C@@H]2N1C(=O)NCc1ccccc1` [compound 65] the IC50 was 0.83 ± 0.22 µM. With `C=CCN1CC(=O)N2[C@@H](Cc3ccc(O)cc3)C(=O)N(Cc3csc4cc(NCCC)ccc34)C[C@@H]2N1C(=O)NCc1ccccc1` [compound 66] the IC50 was 0.84 ± 0.09 µM. `C=CCN1CC(=O)N2[C@@H](Cc3ccc(O)cc3)C(=O)N(Cc3cn(C)c4ccccc34)C[C@@H]2N1C(=O)NCc1ccccc1` [compound 67] showed an IC50 of 0.85 ± 0.089 µM. In the case of `C=CCN1CC(=O)N2[C@@H](Cc3ccc(O)cc3)C(=O)N(Cc3csc4cc(N)ccc34)C[C@@H]2N1C(=O)NCc1ccccc1` [compound 68], the IC50 is reported as 0.86 ± 0.09 µM. With `C=CCN1CC(=O)N2[C@@H](Cc3ccc(O)cc3)C(=O)N(Cc3ccc(F)c(C#N)c3)C[C@@H]2N1C(=O)NCc1ccccc1` [compound 69] the IC50 was 0.87 ± 0.32 µM. For `C=CCN1CC(=O)N2[C@@H](Cc3ccc(O)cc3)C(=O)N(Cc3ccc(F)c(OCCN4CCOCC4)c3)C[C@@H]2N1C(=O)NCc1ccccc1` [compound 70], the IC50 was 0.9 ± 0.2 µM. `C=CCN1CC(=O)N2[C@@H](Cc3ccc(O)cc3)C(=O)N(Cc3cccc4c3ncn4CCC)C[C@@H]2N1C(=O)NCc1ccccc1` [compound 71] was tested, and the IC50 was 0.9 ± 0.08 µM. With `C=CCN1CC(=O)N2[C@@H](Cc3ccc(O)cc3)C(=O)N(Cc3cccc(-c4ccsc4)c3)C[C@@H]2N1C(=O)NCc1ccccc1` [compound 72] the IC50 was 0.9 ± 0.13 µM. `C=CCN1CC(=O)N2[C@@H](Cc3ccc(O)cc3)C(=O)N(Cc3cccc(C(C)=O)c3)C[C@@H]2N1C(=O)NCc1ccccc1` [compound 73] gave an IC50 of 0.9 ± 0.27 µM. `C=CCN1CC(=O)N2[C@@H](Cc3ccc(O)cc3F)C(=O)N(Cc3ccc(F)cc3F)C[C@@H]2N1C(=O)NCc1ccccc1` [compound 74] gave an IC50 of 0.91 ± 0.11 µM. With `C=CCN1CC(=O)N2[C@@H](Cc3ccc(O)cc3)C(=O)N(Cc3csc4cc([N+](=O)[O-])ccc34)C[C@@H]2N1C(=O)NCc1ccccc1` [compound 75] the IC50 was 0.92 ± 0.14 µM. `C=CCCNC(=O)c1cccc(CN2C[C@H]3N(C(=O)CN(CC=C)N3C(=O)NCc3ccccc3)[C@@H](Cc3ccc(O)cc3)C2=O)c1` [compound 76] showed an IC50 of 0.94 ± 0.04 µM. Work on `C=CCN1CC(=O)N2[C@@H](Cc3ccc(O)cc3)C(=O)N(Cc3ccccc3N)C[C@@H]2N1C(=O)NCc1ccccc1` [compound 78] yielded an IC50 of 0.95 ± 0.15 µM. Molecule `C=CCN1CC(=O)N2[C@@H](Cc3ccc(O)cc3)C(=O)N(Cc3cccc(OC)c3OCC3CC3)C[C@@H]2N1C(=O)NCc1ccccc1` [compound 79] has an IC50 of 0.95 ± 0.21 µM. In the case of `C=CCN1CC(=O)N2[C@@H](Cc3ccc(O)cc3)C(=O)N(Cc3ccc(F)c4scnc34)C[C@@H]2N1C(=O)NCc1ccc(F)c(F)c1` [compound 80], the IC50 is reported as 0.96 ± 0.13 µM. `C=CCN1CC(=O)N2[C@@H](Cc3ccc(O)cc3)C(=O)N(Cc3cccc(-c4ccccc4OC)n3)C[C@@H]2N1C(=O)NCc1ccccc1` [compound 81] gave an IC50 of 0.97 ± 0.18 µM. Molecule `C=CCN1CC(=O)N2[C@@H](Cc3ccc(O)cc3)C(=O)N(Cc3cccc(-c4cccc(N)c4)c3)C[C@@H]2N1C(=O)NCc1ccccc1` [compound 82] has an IC50 of 0.99 ± 0.14 µM. `C=CCN1CC(=O)N2[C@@H](Cc3ccc(O)cc3)C(=O)N(Cc3csc4ccc(NC(C)=O)cc34)C[C@@H]2N1C(=O)NCc1ccccc1` [compound 85] was tested, and the IC50 was 1 ± 0.22 µM. For `C=CCN1CC(=O)N2[C@@H](Cc3ccc(O)cc3)C(=O)N(Cc3cccc4c(=O)ccoc34)C[C@@H]2N1C(=O)NCc1ccccc1` [compound 87], the IC50 was 1.01 ± 0.24 µM. `C=CCN1CC(=O)N2[C@@H](Cc3ccc(O)cc3)C(=O)N(Cc3cccc(C(C)(C)C)c3OC)C[C@@H]2N1C(=O)NCc1ccccc1` [compound 89] gave an IC50 of 1.03 ± 0.11 µM. Molecule `C=CCN1CC(=O)N2[C@@H](Cc3ccc(O)cc3)C(=O)N(Cc3cccc(C(=O)NCCOC)c3)C[C@@H]2N1C(=O)NCc1ccccc1` [compound 91] has an IC50 of 1.04 ± 0.18 µM. Work on `C=CCN1CC(=O)N2[C@@H](Cc3ccc(O)cc3)C(=O)N(Cc3cccc4c3nc(C(F)(F)F)n4C)C[C@@H]2N1C(=O)NCc1ccccc1` [compound 93] yielded an IC50 of 1.07 ± 0.2 µM. With `C=CCN1CC(=O)N2[C@@H](Cc3ccc(O)cc3)C(=O)N(Cc3cccc(C4CC4)n3)C[C@@H]2N1C(=O)NCc1ccccc1` [compound 95] the IC50 was 1.1 ± 0.12 µM. Molecule `C=CCN1CC(=O)N2[C@@H](Cc3ccc(O)cc3)C(=O)N(Cc3ccccc3N3CCCC3)C[C@@H]2N1C(=O)NCc1ccccc1` [compound 96] has an IC50 of 1.11 ± 0.25 µM. `C=CCN1CC(=O)N2[C@@H](Cc3ccc(O)cc3)C(=O)N(Cc3cccc(C#N)c3F)C[C@@H]2N1C(=O)NCc1ccccc1` [compound 97] showed an IC50 of 1.13 ± 0.05 µM. With `C=CCN1CC(=O)N2[C@@H](Cc3ccc(O)cc3)C(=O)N(Cc3cccc(-c4cccnc4OC)c3)C[C@@H]2N1C(=O)NCc1ccccc1` [compound 98] the IC50 was 1.17 ± 0.15 µM. Work on `C=CCN1CC(=O)N2[C@@H](Cc3ccc(O)cc3)C(=O)N(Cc3cccc4c3ncn4C(=O)CNC(=O)OC(C)(C)C)C[C@@H]2N1C(=O)NCc1ccccc1` [compound 99] yielded an IC50 of 1.17 ± 0.27 µM. `C=CCN1CC(=O)N2[C@@H](Cc3ccc(O)cc3)C(=O)N(Cc3csc4ccc(N)cc34)C[C@@H]2N1C(=O)NCc1ccccc1` [compound 100] was tested, and the IC50 was 1.21 ± 0.14 µM. `C=CCN1CC(=O)N2[C@@H](Cc3ccc(O)cc3)C(=O)N(Cc3cccc(C(=O)NCC4CCCCC4)c3)C[C@@H]2N1C(=O)NCc1ccccc1` [compound 101] showed an IC50 of 1.24 ± 0.07 µM. Molecule `C=CCN1CC(=O)N2[C@@H](Cc3ccc(O)cc3)C(=O)N(Cc3cccc(NC(C)=O)c3)C[C@@H]2N1C(=O)NCc1ccccc1` [compound 102] has an IC50 of 1.25 ± 0.21 µM. `C=CCN1CC(=O)N2[C@@H](Cc3ccc(O)cc3)C(=O)N(Cc3ccc(F)c4scnc34)C[C@@H]2N1C(=O)NCc1ccc(C)cc1` [compound 103] showed an IC50 of 1.26 ± 0.19 µM. `C=CCN1CC(=O)N2[C@@H](Cc3ccc(O)cc3)C(=O)N(Cc3ccc(F)c4scnc34)C[C@@H]2N1C(=O)NCCc1cccs1` [compound 104] gave an IC50 of 1.27 ± 0.1 µM. In the case of `C=CCN1CC(=O)N2[C@@H](Cc3ccc(O)cc3)C(=O)N(Cc3cccc(OC)c3OS(=O)(=O)c3ccc(Cl)cc3)C[C@@H]2N1C(=O)NCc1ccccc1` [compound 105], the IC50 is reported as 1.27 ± 0.24 µM.

Same assay, conditions: Homo sapiens, SW480; read-out: RGA, IC50 (μM) TopF
For `C=CCN1CC(=O)N2[C@@H](Cc3ccc(OP(=O)(O)O)cc3)C(=O)N(Cc3ccc(F)c4scnc34)C[C@@H]2N1C(=O)NCc1ccc2c(c1)OCO2` [compound 77], the IC50 was 0.94 ± 0.07 µM. `C=CCOc1c(CN2C[C@H]3N(C(=O)CN(CC=C)N3C(=O)NCc3ccccc3)[C@@H](Cc3ccc(O)cc3)C2=O)cccc1OC` [compound 90] gave an IC50 of 1.03 ± 0.16 µM. `C=CCN1CC(=O)N2[C@@H](Cc3ccc(OP(=O)(O)O)cc3)C(=O)N(Cc3cccc4ccnn34)C[C@@H]2N1C(=O)NCc1ccccc1` [compound 92] gave an IC50 of 1.04 ± 0.18 µM. `C=CCN1CC(=O)N2[C@@H](Cc3ccc(OP(=O)(O)O)cc3)C(=O)N(Cc3cccc(N4CCCC4=O)c3)C[C@@H]2N1C(=O)NCc1ccccc1` [compound 94] showed an IC50 of 1.09 ± 0.16 µM.

From US8080657B2, “Compounds of reverse turn mimetics and the use thereof” (Choongwae Pharma Corporation, priority 2008, dated 2011)
